According to patent publication US10710979B2, “EGFR kinase inhibitor and preparation method and use thereof” (ZHEJIANG BOSSAN PHARMACEUTICAL CO. LTD., priority 2015, dated 2020):

Experiments:
Type in all cases: cell-based
[1] = system: human hepatoma cell HepG2; test: Effect of compounds on proliferation of tumor cells (MTT), HepG2; conditions: 72 hours
Experimental: (§1) Human lung cancer cells H1975, H522, human hepatoma cell HepG2, human melanoma cell A375, human epidermal cancer cell A431, and human colon cancer cells COLO205 were cultivated. The cells were collected when they have grown to logarithmic growth phase, and centrifuged at 1000 rpm for 5 min, from which the supernatant was discarded, and the rest was suspended with appropriate amount of medium, and the concentration of cells was adjusted to 2.5-5.5×10^4/ml (once it was 3.0-5.5×10^4/ml). The cell suspension was inoculated into a 96-well cell culture plate with 100 μl per well, and placed in a cell incubator (37° C., 5% CO2) for 24 hours, and then 100 μl of the drug diluted in the cell culture medium was added to each well of the drug group. Three duplicate wells were set for each drug, and the negative control group was medium containing 0.5% DMSO. After being incubated for 72 hours in the incubator, 20 μl of MTT (5 mg/ml) was added to each well, which was placed under 37° C. for 3 hours. 150 μl of DMSO was added to each well and shaken at 37° C. for 5 mins, and absorbance (OD) was determined at 492 nm. The Prism Graphpad statistical software was used to calculate IC50 values.

[2] = system: human lung cancer cells H1975; test: Effect of compounds on proliferation of tumor cells (MTT), H1975; conditions: Homo sapiens, NCI-H1975; H1975 cells, 72 hours, MTT
Experimental: as §1

human melanoma cell A375 = test: Effect of compounds on proliferation of tumor cells (MTT), A375; conditions: A-375, 72 hours
Experimental: as §1

[3] = system: human epidermal cancer cell A431; test: Effect of compounds on proliferation of tumor cells (MTT), A431; conditions: A-431, 72 hours
Experimental: as §1

[4] = system: human colon cancer cells COLO205; test: Effect of compounds on proliferation of tumor cells (MTT), COLO205; conditions: COLO 205, 72 hours
Experimental: as §1

[5] = system: human lung cancer cells H522; test: Effect of compounds on proliferation of tumor cells (MTT), H522; conditions: NCI-H522, 72 hours
Experimental: as §1

SMILES | IC50 [1] [µM] | IC50 [2] [µM] | IC50 (human melanoma cell A375) [µM] | IC50 [3] [µM] | IC50 [4] [µM] | IC50 [5] [µM]
C=CC(=O)Nc1cccc(Nc2nc(Nc3ccc(N4CCNCC4)nc3OC)ncc2C(F)(F)F)c1 [ES-069] | 15.8 | 0.224 | 2.42 | 5.26 |  | 
C=CC(=O)Nc1cccc(Nc2nc(Nc3ccc(N4CCN(C(=O)OC(C)(C)C)CC4)nc3OC)ncc2C(F)(F)F)c1 [ES-070] | 7.22 | 0.111 | 4.95 | 1.75 |  | 
C=CC(=O)Nc1cccc(Nc2nc(Nc3cnc(N4CCN(C(=O)OC(C)(C)C)CC4)cc3OC)ncc2C(F)(F)F)c1 [ES-073] | 1.95 | 0.214 | 15 | 7.08 |  | 
C=CC(=O)Nc1cccc(Nc2nc(Nc3cnc(N4CCN(C(C)=O)CC4)cc3OC)ncc2C(F)(F)F)c1 [ES-074] | 6.88 | 0.179 | 10.3 | 3.5 |  | 
C=CC(=O)Nc1cccc(Nc2nc(Nc3ccc(NC4CCN(C(C)=O)C4)nc3OC)ncc2C(F)(F)F)c1 (stereo not shown) [ES-123] | 9.2 | 0.15 | 8.94 | 4.62 | 4.62 | 2.69
C=CC(=O)Nc1cccc(Nc2nc(Nc3ccc(NC4CCN(CCF)C4)nc3OC)ncc2C(F)(F)F)c1 (stereo not shown) [ES-124] | 3.73 | 0.0557 | 6.26 | 2.09 | 2.21 | 1.25
C=CC(=O)Nc1cccc(Nc2nc(Nc3ccc(NC4CCN(C(=O)C5COC5)C4)nc3OC)ncc2C(F)(F)F)c1 (stereo not shown) [ES-125] | 16.8 | 0.149 | 12.2 | 5.04 | 5.56 | 3.96
C=CC(=O)Nc1cccc(Nc2nc(Nc3ccc(N4CCN(C(=O)C5CC5)CC4)nc3OC)ncc2C(F)(F)F)c1 [ES-130] | 0.794 | 0.0356 | 4.59 | 2.25 | 3.35 | 1.77
C=CC(=O)Nc1cccc(Nc2nc(Nc3ccc(N4CCN(C(=O)N(C)C)CC4)nc3OC)ncc2C(F)(F)F)c1 [ES-131] | 3.07 | 0.0579 | 4.04 | 3.82 | 5.33 | 2.4
C=CC(=O)Nc1cccc(Nc2nc(Nc3ccc(N4CCN(S(=O)(=O)N(C)C)CC4)nc3OC)ncc2C(F)(F)F)c1 [ES-132] | 4.14 | 0.23 | 4.42 | 2.62 | 3.78 | 2.9
C=CC(=O)Nc1cccc(Nc2nc(Nc3ccc(N4CCN(S(=O)(=O)NC)CC4)nc3OC)ncc2C(F)(F)F)c1 [ES-133] | 13.2 | 0.43 | 12.5 | 5.68 | 5.66 | 3.39
C=CC(=O)Nc1cccc(Nc2nc(Nc3ccc(N4CCN(S(=O)(=O)C5CC5)CC4)nc3OC)ncc2C(F)(F)F)c1 [ES-134] | 0.399 | 0.0691 | 3.36 | 1.72 | 2.95 | 1.64
C=CC(=O)Nc1cccc(Nc2nc(Nc3ccc(N4CCN(C(=O)C(F)(F)F)CC4)nc3OC)ncc2C(F)(F)F)c1 [ES-135] | 0.329 | 0.11 | 1.5 | 4.43 | 8.87 | 3.25
C=CC(=O)Nc1cccc(Nc2nc(Nc3ccc(N4CCN(C(=O)OCC)CC4)nc3OC)ncc2C(F)(F)F)c1 [ES-136] | 2.05 | 0.175 | 1.04 | 0.768 | 3.59 | 1.59
C=CC(=O)Nc1cccc(Nc2nc(Nc3ccc(N4CCN(C(=O)CC)CC4)nc3OC)ncc2C(F)(F)F)c1 [ES-137] | 2.69 | 0.0211 | 3.58 | 2.27 | 4.12 | 2.29
C=CC(=O)Nc1cccc(Nc2nc(Nc3ccc(N4CCN(C(=O)CC(C)(C)C)CC4)nc3OC)ncc2C(F)(F)F)c1 [ES-138] | 3.07 | 0.254 | 3.79 | 2.91 | 4.08 | 5.89
C=CC(=O)Nc1cccc(Nc2nc(Nc3ccc(N4CCN(C(=O)C(C)(C)C)CC4)nc3OC)ncc2C(F)(F)F)c1 [ES-139] | 3.86 | 1.65 | 9.47 | 4.54 | 3.6 | 2.71

SMILES | IC50 [1] [µM] | IC50 [2] [µM] | IC50 (human melanoma cell A375) [µM] | IC50 [3] [µM] | IC50 [4] [µM] | IC50 [5] [µM]
C=CC(=O)Nc1cccc(Nc2nc(Nc3ccc(N4CCN(C(=O)COC(C)=O)CC4)nc3OC)ncc2C(F)(F)F)c1 [ES-140] | 5.87 | 0.27 | 6.46 | 2.08 | 3.16 | 2.28
C=CC(=O)Nc1cccc(Nc2nc(Nc3ccc(N4CCN(C(=O)C(C)C)CC4)nc3OC)ncc2C(F)(F)F)c1 [ES-141] | 4.05 | 0.0552 | 4.5 | 0.72 | 4.25 | 2.34
C=CC(=O)Nc1cccc(Nc2nc(Nc3ccc(N4CCN(S(C)(=O)=O)CC4)nc3OC)ncc2C(F)(F)F)c1 [ES-142] | 1.01 | 0.08 | 4.4 | 1.22 | 2.96 | 0.826
C=CC(=O)Nc1cccc(Nc2nc(Nc3ccc(N4CCN(S(=O)(=O)CC)CC4)nc3OC)ncc2C(F)(F)F)c1 [ES-143] | 0.401 | 0.48 | 2.02 | > 100 | 2.15 | 1.07
C=CC(=O)Nc1cccc(Nc2nc(Nc3ccc(N4CCN(S(=O)(=O)CCC)CC4)nc3OC)ncc2C(F)(F)F)c1 [ES-144] | 0.101 | 0.133 | 1.51 | 2.18 | 1.46 | 0.399
C=CC(=O)Nc1cccc(Nc2nc(Nc3ccc(N4CCN(S(=O)(=O)C(C)C)CC4)nc3OC)ncc2C(F)(F)F)c1 [ES-145] | 33.3 | 0.542 | 77.9 | 13.5 | 37.6 | 18
C=CC(=O)Nc1cccc(Nc2nc(Nc3ccc(NC4CCN(C)C4)nc3OC)ncc2C(F)(F)F)c1 (stereo not shown) [ES-146] | 13 | 0.046 | 12.2 | 3.46 | 8.71 | 3
C=CC(=O)Nc1cccc(Nc2nc(Nc3ccc(N(C)C4CCN(C(C)=O)C4)nc3OC)ncc2C(F)(F)F)c1 (stereo not shown) [ES-147] | 4.28 | 0.464 | 4.2 | 2.21 | 4.29 | 1.74
C=CC(=O)Nc1cccc(Nc2nc(Nc3ccc(N(C)C4CCN(CCF)C4)nc3OC)ncc2C(F)(F)F)c1 (stereo not shown) [ES-148] | 4.53 | 0.032 | 5.87 | 2.5 | 5 | 1.56
C=CC(=O)Nc1cccc(Nc2nc(Nc3ccc(N(C)C4CCN(C(=O)C5COC5)C4)nc3OC)ncc2C(F)(F)F)c1 (stereo not shown) [ES-149] | 5.23 | 0.0491 | 6.71 | 3.92 | 5.07 | 3.1
C=CC(=O)Nc1cccc(Nc2nc(Nc3ccc(N(C)C4CCN(C)C4)nc3OC)ncc2C(F)(F)F)c1 (stereo not shown) [ES-150] | 3.27 | 0.0232 | 6.22 | 2.05 | 5.15 | 1.51
C=CC(=O)Nc1cccc(Nc2nc(Nc3ccc(N(C)C4CCN(C(=O)N(C)C)C4)nc3OC)ncc2C(F)(F)F)c1 (stereo not shown) [ES-151] | 4.78 | 0.132 | 4.47 | 6.74 | 6.07 | 3.13
C=CC(=O)Nc1cccc(Nc2nc(Nc3ccc(N4CCN(C(C)=O)CC4)nc3)ncc2C(F)(F)F)c1 [ES-157] | 1.38 | 0.0872 | 5.46 | 1.81 | 1.79 | 0.655
C=CC(=O)Nc1cccc(Nc2nc(Nc3ccc(N4CCN(C(=O)N(C)C)CC4)nc3)ncc2C(F)(F)F)c1 [ES-158] | 3.42 | 0.107 | 3.76 | 1.07 | 1.93 | 0.735
C=CC(=O)Nc1cccc(Nc2nc(Nc3cnc(N4CCN(C(=O)OC(C)(C)C)CC4)nc3OC)ncc2C(F)(F)F)c1 [ES-159] | 2.23 | 0.649 | 49.9 | 37 | 1.86 | 3.13
C=CC(=O)Nc1cccc(Nc2nc(Nc3cnc(N4CCN(C(C)=O)CC4)nc3OC)ncc2C(F)(F)F)c1 [ES-160] | 5.79 | 0.69 | > 100 | 7.21 | 5.08 | 3.56
C=CC(=O)Nc1cccc(Nc2nc(Nc3cnc(N4CCN(C)CC4)nc3OC)ncc2C(F)(F)F)c1 [ES-161] | 6.24 | 0.0868 | 7.86 | 2.32 | 4.14 | 2.75
